Data on 17 compounds can be found in US20230242473A1, “THYROMIMETICS” (Autobahn Therapeutics, Inc., priority 2020, published 2023).

One assay has as its target T1, TRα (Homo sapiens, UniProt P10827).
T1 construct: expressed in transfected cells; host or cells: HEK293-derived reporter cell line
T1 sequence (P10827 128-410 isoform P10827-2 limits assumed): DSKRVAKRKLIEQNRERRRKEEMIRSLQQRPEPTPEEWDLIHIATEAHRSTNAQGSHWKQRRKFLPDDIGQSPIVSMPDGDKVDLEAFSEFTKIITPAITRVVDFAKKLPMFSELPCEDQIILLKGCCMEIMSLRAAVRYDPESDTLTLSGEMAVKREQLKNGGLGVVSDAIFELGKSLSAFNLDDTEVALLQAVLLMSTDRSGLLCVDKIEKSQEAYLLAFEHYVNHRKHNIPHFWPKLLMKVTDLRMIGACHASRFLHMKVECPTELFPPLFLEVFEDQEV
Nature of the assay: Thyroid-hormone reporter-gene assay, TRα (Gal4 hybrid, luciferase). It counts as cell-based. To be noted: HEK293-derived reporter cells, 24 hr treatment, luciferase readout. The protocol: (§1) Compounds were tested for thyroid-hormone receptor activity using TR reporter-gene assays. Reporter cells used in the assays express a TR-receptor hybrid (either TRα or TRO) in which the native N-terminal DNA binding domain (DBD) has been replaced with that of the yeast Gal4 DBD. The reporter gene, firefly luciferase, is functionally linked to the Gal4 upstream activation sequence (UAS). Both cell lines were derived from human embryonic kidney (HEK293).
(§2) Step 1: A suspension of reporter cells was prepared in cell recovery medium containing 10% charcoal-stripped FBS, and dispensed into assay plates. The plates were pre-incubated for 6 hours in a cell culture incubator (37° C./5% CO2/85% humidity).
(§3) These intermediate stocks were subsequently diluted directly into compound screening medium containing 10% charcoal-stripped FBS to generate “2×-concentration” treatment media (containing 0.2, 0.4 or 0.8% DMSO).
(§4) Step 3: At the end of the pre-incubation period, culture media were discarded from the assay plates, and all wells received 100 μl of compound screening medium. 100 μl of each of the previously prepared “2×-concentration” treatment media were dispensed into duplicate assay wells, thereby achieving the desired final treatment concentrations. The final concentration of DMSO in all assay wells was 0.1, 0.2 or 0.4%. Assay plates were incubated for 24 hr in a cell culture incubator (37° C./5% CO2/85% humidity).
(§5) Step 4: At the 24 h assay endpoint, treatment media were discarded and 100 µl/well of luciferase detection reagent was added. Relative luminometer units (RLUs) were quantified from each assay well.

For a further assay, the target named is T2, TRβ (Homo sapiens, UniProt P10828).
T2 construct: expressed in transfected cells; host or cells: HEK293-derived reporter cell line
T2 sequence (P10828 217-461 limits assumed): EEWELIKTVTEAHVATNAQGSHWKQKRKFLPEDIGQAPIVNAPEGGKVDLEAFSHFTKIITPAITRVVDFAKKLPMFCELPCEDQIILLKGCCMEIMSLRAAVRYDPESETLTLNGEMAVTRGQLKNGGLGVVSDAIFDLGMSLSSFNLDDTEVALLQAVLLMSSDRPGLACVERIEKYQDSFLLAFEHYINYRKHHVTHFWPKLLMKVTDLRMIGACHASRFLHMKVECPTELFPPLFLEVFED
Put plainly: Thyroid-hormone reporter-gene assay, TRβ (Gal4 hybrid, luciferase). The settings on record: for EC50: HEK293-derived reporter cells, 24 hr treatment, luciferase readout; for T3-SI, selectivity index (SI) calculated as EC50 (TRα)/EC50 (TRβ): TRα vs TRβ reporter-gene assays. It is filed as cell-based. The protocol:
as §1, §2, §3, §4, §5

For assay [1], the target named is T3, recombinant human FAAH (rhFAAH) (Homo sapiens, UniProt O00519).
T3 construct: purchased Cayman Chemical (Ann Arbor, Mich., USA)
T3 sequence (O00519 1-579): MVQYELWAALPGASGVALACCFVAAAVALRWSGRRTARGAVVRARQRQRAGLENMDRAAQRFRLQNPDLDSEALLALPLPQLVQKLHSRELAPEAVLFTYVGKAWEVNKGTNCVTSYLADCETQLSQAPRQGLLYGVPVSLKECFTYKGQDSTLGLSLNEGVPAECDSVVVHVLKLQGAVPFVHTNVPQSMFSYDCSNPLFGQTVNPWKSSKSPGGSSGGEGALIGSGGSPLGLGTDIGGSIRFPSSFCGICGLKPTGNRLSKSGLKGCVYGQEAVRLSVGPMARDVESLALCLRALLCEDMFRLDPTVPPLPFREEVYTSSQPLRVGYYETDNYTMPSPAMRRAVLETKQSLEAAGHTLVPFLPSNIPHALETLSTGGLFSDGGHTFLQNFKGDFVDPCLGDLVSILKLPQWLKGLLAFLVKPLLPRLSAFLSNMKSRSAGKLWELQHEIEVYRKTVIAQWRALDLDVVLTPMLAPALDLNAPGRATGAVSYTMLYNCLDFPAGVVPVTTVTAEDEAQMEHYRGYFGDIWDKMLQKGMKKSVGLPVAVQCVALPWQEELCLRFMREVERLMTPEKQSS
Put plainly: FAAH substrate evaluation (formation of acid metabolite, LC-MS/MS). It counts as in vitro ADME. To be noted: 0.5 ng/μL rhFAAH, 1 μM test compound, pH 8.0, room temperature, 0-60 minutes. The protocol: Purified recombinant human FAAH (rhFAAH) was purchased from Cayman Chemical (Ann Arbor, Mich., USA). The total volume for each incubation was 400 μL containing a final 0.5 ng/μL rhFAAH, 1 μM test compound, 1.25% ethanol or 1 μM PF-3845 (FAAH inhibitor), and 0.1% bovine serum albumin in Tris-EDTA buffer at pH 8.0). The positive control was LL-341001. The incubation was conducted at the room temperature. At 0, 5, 15, 30 and 60 minutes, an aliquot of 30 μL reaction mixtures was removed and mixed with 300 μL acetonitrile containing 5 ng/mL terfenadine and 10 ng/mL tolbutamide as internal standards to quench the reaction. The resulting mixture was centrifuged at 4000 rpm, 4° C. for 15 minutes, and 100 μL supernatant was ready for LC-MS/MS analysis to measure the formation of acid metabolite.
Acquity Ultra Performance LC system from Waters was used for sample analysis. The chromatography was performed on a reverse phase Kinetex 2.6 μm C18 column, 2.1×30 mm, 100 Å. The mobile phase A comprised of 0.10% formic acid in water and mobile phase B comprised of 0.1% formic acid in acetonitrile with a 2-min run time at the flow rate of 0.8 mL/min for the acid metabolite from positive control or a 1.5 min run time at the flow rate of 0.9 mL/min for the acid metabolite of test compounds. The mass spectrometer (API-5500 and API Q Trap 4000 Applied Biosystems/MDS SCIEX Instruments, Framingham, Mass., USA) was operated under ESI positive or negative ion MRM mode.
The formation of acid metabolite was monitored and quantified using one calibration point of 1 μM. The observed rate constant (ke) for the acid metabolite formation was calculated by plotting the metabolite concentration versus time of incubation with the slope being ke and is shown in Table 4.

As a reminder, the EC50 is the concentration giving half of the maximal effect. Low readings indicate a more potent agent, high ones a less potent agent. As to `CC(C)c1c(O)ccc(Cc2ccc(OCC(=O)O)c3c2CCC3)c1F` [Compound 2, 2-((7-(2-fluoro-4-hydroxy-3-isopropylbenzyl)-2,3-dihydro-1H-inden-4-yl)oxy)acetic acid], the EC50 at TRα is > 1000 nM. In addition, at TRβ, the 50% effective concentration (EC50) was in the range of 100 to 1000 nM and the “T3-SI, selectivity index (SI) calculated as EC50 (TRα)/EC50 (TRβ)” value (from here on “T3-SI, selectivity index (SI) calculated”) was “++ (++3X<T3−SI≤30X)”.
As to `CC(C)c1c(O)ccc(Cc2ccc(OCC(=O)O)c3c2C(C)CC3)c1F` (stereo not drawn) [Compound 4, 2-((7-(2-fluoro-4-hydroxy-3-isopropylbenzyl)-1-methyl-2,3-dihydro-1H-inden-4-yl)oxy)acetic acid], the EC50 at TRα and on TRβ was > 1000 nM in each case.
Regarding `Cc1cc(OCC(=O)O)c2c(c1Cc1ccc(O)c(C(C)C)c1)CCC2` [Compound 6, 2-((7-(4-hydroxy-3-isopropylbenzyl)-6-methyl-2,3-dihydro-1H-inden-4-yl)oxy)acetic acid], the EC50 lay within 100 to 1000 nM on TRα and 10 to 100 nM on TRβ. For the same compound, the “T3-SI, selectivity index (SI) calculated” value on TRβ is given as “++ (++3X<T3−SI≤30X)”.
In the same order, the values of `Cc1cc(OCC(=O)O)c2c(c1Cc1ccc(O)c(C(C)c3ccc(F)cc3)c1)CCC2` (stereo not drawn) [Compound 8, 2-((7-(3-(1-(4-fluorophenyl)ethyl)-4-hydroxybenzyl)-6-methyl-2,3-dihydro-1H-inden-4-yl)oxy)acetic acid] are 10 to 100 nM, < 10 nM and “++ (++3X<T3−SI≤30X)”.
`Cc1cc(OCC(=O)O)c2c(c1Cc1ccc(O)c(C(C)C)c1F)CCC2` [Compound 10, 2-((7-(2-fluoro-4-hydroxy-3-isopropylbenzyl)-6-methyl-2,3-dihydro-1H-inden-4-yl)oxy)acetic acid] displayed an EC50 on TRα of 10 to 100 nM. Moreover, at TRβ, the 50% effective concentration (EC50) is < 10 nM and the “T3-SI, selectivity index (SI) calculated” value is reported as “++ (++3X<T3−SI≤30X)”.
As to `CNC(=O)COc1cc(C)c(Cc2ccc(O)c(C(C)C)c2F)c2c1CCC2` [Compound 11, 2-((7-(2-fluoro-4-hydroxy-3-isopropylbenzyl)-6-methyl-2,3-dihydro-1H-inden-4-yl)oxy)-N-methylacetamide], in assay [1], the “ke, observed rate constant for the acid metabolite formation” value was “A (A = ke is less than 2.0 and more than or equal to 0.05)”.
On to `CC(C)c1cc(Cc2ccc(OCC(=O)O)c3ccccc23)ccc1O` [Compound 14, 2-((4-(4-hydroxy-3-isopropylbenzyl)naphthalen-1-yl)oxy)acetic acid], for which, on TRα, the EC50 was > 1000 nM. On TRβ, the half-maximal effective concentration (EC50) lay within 100 to 1000 nM and the “T3-SI, selectivity index (SI) calculated” value is recorded as “++ (++3X<T3−SI≤30X)”.
In the same order, the values of `CC(C)c1cc(Cc2cc(F)c(OCC(=O)O)c3c2CCC3)ccc1O` [Compound 16, 2-((5-fluoro-7-(4-hydroxy-3-isopropylbenzyl)-2,3-dihydro-1H-inden-4-yl)oxy)acetic acid] are > 1000 nM, > 1000 nM and “++ (++3X<T3−SI≤30X)”.
In the same order, the values of `CC(C)c1cc(Cc2cc(F)c(OCC(=O)O)cc2C(F)(F)F)ccc1O` [Compound 18, 2-(2-fluoro-4-(4-hydroxy-3-isopropylbenzyl)-5-(trifluoromethyl)phenoxy)acetic acid] are > 1000 nM, > 1000 nM and “+ (+T3−SI≤3X)”.
In the same order, the values of `CC(C)c1c(O)ccc(Cc2ccc(OCC(=O)O)cc2Cl)c1F` [Compound 20, 2-(3-chloro-4-(2-fluoro-4-hydroxy-3-isopropylbenzyl)phenoxy)acetic acid] are > 1000 nM, 100 to 1000 nM and “++ (++3X<T3−SI≤30X)”.
For the compound `C=C(C)c1cc(OCC(=O)O)ccc1Cc1ccc(O)c(C(C)C)c1F` [Compound 23, 2-(4-(2-fluoro-4-hydroxy-3-isopropylbenzyl)-3-(prop-1-en-2-yl)phenoxy)acetic acid], the figures for the EC50 at TRα and on TRβ were > 1000 nM and 100 to 1000 nM, respectively. In addition, the “T3-SI, selectivity index (SI) calculated” value at TRβ is “++ (++3X<T3−SI≤30X)”.
`CC(C)c1cc(OCC(=O)O)ccc1Cc1ccc(O)c(C(C)C)c1F` [Compound 25, 2-(4-(2-fluoro-4-hydroxy-3-isopropylbenzyl)-3-isopropylphenoxy)acetic acid] came in with an EC50 at TRα of 100 to 1000 nM. Besides, on TRβ, the EC50 is 10 to 100 nM and the “T3-SI, selectivity index (SI) calculated” value was “++ (++3X<T3−SI≤30X)”.
Consider `CC(C)c1c(O)ccc(Cc2ccc(OCC(=O)O)c(F)c2Cl)c1F` [Compound 27, 2-(3-chloro-2-fluoro-4-(2-fluoro-4-hydroxy-3-isopropylbenzyl)phenoxy)acetic acid], for which the half-maximal effective concentration (EC50) on TRα and on TRβ was > 1000 nM each time.
Turning to `CC(C)c1c(O)ccc(Cc2cc(F)c(OCC(=O)O)cc2Cl)c1F` [Compound 29, 2-(5-chloro-2-fluoro-4-(2-fluoro-4-hydroxy-3-isopropylbenzyl)phenoxy)acetic acid], the half-maximal effective concentration (EC50) at TRα is > 1000 nM. At TRβ, the half-maximal effective concentration (EC50) lay within 100 to 1000 nM and the “T3-SI, selectivity index (SI) calculated” value is “+++ (+++T3−SI>30X)”.
`CC(C)c1c(O)ccc(Cc2ccc(OCC(=O)O)c(F)c2C(C)C)c1F` [Compound 31, 2-(2-fluoro-4-(2-fluoro-4-hydroxy-3-isopropylbenzyl)-3-isopropylphenoxy)acetic acid]: the EC50 on TRα and on TRβ was > 1000 nM each time. In addition, the “T3-SI, selectivity index (SI) calculated” value at TRβ is given as “++ (++3X<T3−SI≤30X)”.
With `CC(C)c1cc(Cc2cc(F)c(OCC(=O)O)cc2C(C)C)ccc1O` [Compound 36, 2-(2-fluoro-4-(4-hydroxy-3-isopropylbenzyl)-5-isopropylphenoxy)acetic acid], the EC50 on TRα and at TRβ was 100 to 1000 nM in each case. Moreover, at TRβ, the “T3-SI, selectivity index (SI) calculated” value is “++ (++3X<T3−SI≤30X)”.
`CC(C)c1cc(Cc2cc(F)c(OCC(=O)O)c(F)c2Cl)ccc1O` [Compound 38, 2-(3-chloro-2,6-difluoro-4-(4-hydroxy-3-isopropylbenzyl)phenoxy)acetic acid]: on TRβ, the concentration for a half-maximal effect (EC50) was > 1000 nM.
